Test results reported in patent US20250276983A1, “COMPOUNDS AND METHODS FOR MODULATING HER2” (IAMBIC THERAPEUTICS, INC., priority 2022, published 2025).
Where two headings read alike, the source gives them in different places.

Legend:
Assay type in all cases: cell-based
BaF3_HER2YVMA cells = test: Cell growth inhibition assay, BaF3_HER2YVMA; conditions: BaF3_HER2YVMA cells, 3 days treatment, CellTiterGlo 2.0, read-out: HER2-YVMA IC50 (nM), cell growth inhibition
BaF3_HER2WT cells = test: Cell growth inhibition assay, BaF3_HER2WT; conditions: 3 days treatment, CellTiterGlo 2.0, read-out: HER2 WT IC50 (nM), cell growth inhibition
BaF3_EGFRWT cells = test: Cell growth inhibition assay, BaF3_EGFRWT; conditions: 80 ng/mL recombinant human EGF, 3 days treatment, CellTiterGlo 2.0, read-out: EGFR WT IC50 (nM), cell growth inhibition

Cc1cc(Nc2ncnn3ccc(C4CN(C(=O)/C=C/CN5CCOCC5)C4)c23)ccc1Oc1ccn2ncnc2c1 [Example 37, (E)-1-(3-(4-((4-([1,2,4]triazolo[1,5-a]pyridin-7-yloxy)-3-methylphenyl)amino)pyrrolo[2,1-f][1,2,4]triazin-5-yl)azetidin-1-yl)-4-morpholinobut-2-en-1-one]
IC50 (BaF3_HER2YVMA cells; 72 h): < 200 nM | IC50 (BaF3_HER2WT cells; 72 h): < 200 nM | IC50 (BaF3_EGFRWT cells; 72 h): 1500 to 5000 nM

Cc1cc(Nc2ncnn3ccc(C4CC5CCC(C4)N5C(=O)/C=C/CN(C)C)c23)ccc1Oc1ccn2ncnc2c1 (single isomer, unassigned) [Examples 122 and 123, second eluting isomer, (E)-1-(3-(4-((4-([1,2,4]triazolo[1,5-a]pyridin-7-yloxy)-3-methylphenyl)amino)pyrrolo[2,1-f][1,2,4]triazin-5-yl)-8-azabicyclo[3.2.1]octan-8-yl)-4-(dimethylamino)but-2-en-1-one]
IC50 (BaF3_HER2YVMA cells): 200 to 500 nM | IC50 (BaF3_HER2WT cells): < 200 nM | IC50 (BaF3_EGFRWT cells): 1500 to 5000 nM

Cc1cc(Nc2ncnn3ccc(C4CCN(C(=O)/C=C/CN5CCN(C)CC5)CC4)c23)ccc1Oc1ccn2ncnc2c1 [Example 24, (E)-1-(4-(4-((4-([1,2,4]triazolo[1,5-a]pyridin-7-yloxy)-3-methylphenyl)amino)pyrrolo[2,1-f][1,2,4]triazin-5-yl)piperidin-1-yl)-4-(4-methylpiperazin-1-yl)but-2-en-1-one]
IC50 (BaF3_HER2YVMA cells; 72 h): 500 to 1500 nM | IC50 (BaF3_HER2WT cells; 72 h): < 200 nM | IC50 (BaF3_EGFRWT cells; 72 h): 1500 to 5000 nM

C=CC(=O)N1CC(c2ccn3ncnc(Nc4ccc(Oc5ccn6ncnc6c5)c(C)c4)c23)C1 [Example 3, 1-(3-(4-((4-([1,2,4]triazolo[1,5-a]pyridin-7-yloxy)-3-methylphenyl)amino)pyrrolo[2,1-f][1,2,4]triazin-5-yl)azetidin-1-yl)prop-2-en-1-one]
IC50 (BaF3_HER2YVMA cells; 72 h): < 200 nM | IC50 (BaF3_HER2WT cells; 72 h): < 200 nM | IC50 (BaF3_EGFRWT cells; 72 h): 500 to 1500 nM

Cc1cc(Nc2ncnn3ccc(N4CC(NC(=O)/C=C/CN(C)C)C4)c23)ccc1Oc1ccn2ncnc2c1 [Example 71, (E)-N-(1-(4-((4-([1,2,4]triazolo[1,5-a]pyridin-7-yloxy)-3-methylphenyl)amino)pyrrolo[2,1-f][1,2,4]triazin-5-yl)azetidin-3-yl)-4-(dimethylamino)but-2-enamide]
IC50 (BaF3_HER2YVMA cells; 72 h): 200 to 500 nM | IC50 (BaF3_HER2WT cells; 72 h): < 200 nM | IC50 (BaF3_EGFRWT cells; 72 h): 1500 to 5000 nM

Cc1cc(Nc2ncnn3ccc(C4CN(C(=O)/C=C/CN(C)C)C4)c23)ccc1Oc1cc2ncnn2cn1 [Example 158, (E)-1-(3-(4-((4-([1,2,4]triazolo[1,5-c]pyrimidin-7-yloxy)-3-methylphenyl)amino)pyrrolo[2,1-f][1,2,4]triazin-5-yl)azetidin-1-yl)-4-(dimethylamino)but-2-en-1-one]
IC50 (BaF3_HER2YVMA cells; 72 h): < 200 nM | IC50 (BaF3_HER2WT cells; 72 h): < 200 nM | IC50 (BaF3_EGFRWT cells; 72 h): 500 to 1500 nM

Cc1cc(Nc2ncnn3ccc(C4CN(C(=O)/C=C\C56CCCN5CCC6)C4)c23)ccc1Oc1ccn2ncnc2c1 [Example 160, (Z)-1-(3-(4-((4-([1,2,4]triazolo[1,5-a]pyridin-7-yloxy)-3-methylphenyl)amino)pyrrolo[2,1-f][1,2,4]triazin-5-yl)azetidin-1-yl)-3-(tetrahydro-1H-pyrrolizin-7a(5H)-yl)prop-2-en-1-one]
IC50 (BaF3_HER2YVMA cells; 72 h): < 200 nM | IC50 (BaF3_HER2WT cells; 72 h): < 200 nM | IC50 (BaF3_EGFRWT cells; 72 h): 1500 to 5000 nM

Cc1cc(Nc2ncnn3cnc(C4CCN(C(=O)/C=C/CN(C)C)CC4)c23)ccc1Oc1ccn2ncnc2c1 [Example 88, (E)-1-(4-(4-((4-([1,2,4]triazolo[1,5-a]pyridin-7-yloxy)-3-methylphenyl)amino)imidazo[5,1-f][1,2,4]triazin-5-yl)piperidin-1-yl)-4-(dimethylamino)but-2-en-1-one]
IC50 (BaF3_HER2YVMA cells; 72 h): 1500 to 5000 nM | IC50 (BaF3_HER2WT cells; 72 h): 500 to 1500 nM | IC50 (BaF3_EGFRWT cells; 72 h): 1500 to 5000 nM

Cc1cc(Nc2ncnn3ccc(N4CCN(C(=O)C(F)Cl)CC(F)(F)C4)c23)ccc1Oc1ccn2ncnc2c1 (stereo not drawn) [Example 63, 1-(4-(4-((4-([1,2,4]triazolo[1,5-a]pyridin-7-yloxy)-3-methylphenyl)amino)pyrrolo[2,1-f][1,2,4]triazin-5-yl)-6,6-difluoro-1,4-diazepan-1-yl)-2-chloro-2-fluoroethan-1-one]
IC50 (BaF3_HER2YVMA cells; 72 h): 500 to 1500 nM | IC50 (BaF3_HER2WT cells; 72 h): 500 to 1500 nM | IC50 (BaF3_EGFRWT cells; 72 h): 1500 to 5000 nM

Cc1cc(Nc2ncnn3ccc(N4CCC(N(C)C(=O)/C=C/CN(C)C)CC4)c23)ccc1Oc1ccn2ncnc2c1 [Example 73, (E)-N-(1-(4-((4-([1,2,4]triazolo[1,5-a]pyridin-7-yloxy)-3-methylphenyl)amino)pyrrolo[2,1-f][1,2,4]triazin-5-yl)piperidin-4-yl)-4-(dimethylamino)-N-methylbut-2-enamide]
IC50 (BaF3_HER2YVMA cells; 72 h): 500 to 1500 nM | IC50 (BaF3_HER2WT cells; 72 h): < 200 nM | IC50 (BaF3_EGFRWT cells; 72 h): 1500 to 5000 nM

CO[C@@H]1CN(C/C=C/C(=O)N2CCC(c3ccn4ncnc(Nc5ccc(Oc6ccn7ncnc7c6)c(C)c5)c34)CC2)C[C@H]1OC [Example 170, (E)-1-(4-(4-((4-([1,2,4]triazolo[1,5-a]pyridin-7-yloxy)-3-methylphenyl)amino)pyrrolo[2,1-f][1,2,4]triazin-5-yl)piperidin-1-yl)-4-((3R,4R)-3,4-dimethoxypyrrolidin-1-yl)but-2-en-1-one]
IC50 (BaF3_HER2YVMA cells; 72 h): < 200 nM | IC50 (BaF3_HER2WT cells; 72 h): < 200 nM | IC50 (BaF3_EGFRWT cells; 72 h): 1500 to 5000 nM

Cc1cc(Nc2ncnn3ccc(C4CN(C(=O)/C(F)=C/C5CCCN5C)C4)c23)ccc1Oc1ccn2ncnc2c1 (stereo not drawn) [Example 92, (Z)-1-(3-(4-((4-([1,2,4]triazolo[1,5-a]pyridin-7-yloxy)-3-methylphenyl)amino)pyrrolo[2,1-f][1,2,4]triazin-5-yl)azetidin-1-yl)-2-fluoro-3-(1-methylpyrrolidin-2-yl)prop-2-en-1-one]
IC50 (BaF3_HER2YVMA cells; 72 h): < 200 nM | IC50 (BaF3_HER2WT cells; 72 h): < 200 nM | IC50 (BaF3_EGFRWT cells; 72 h): 1500 to 5000 nM

C=CC(=O)N1CCC2CCC(C1)N2c1ccn2ncnc(Nc3ccc(Oc4ccn5ncnc5c4)c(C)c3)c12 (stereo not drawn) [Example 55, 1-(9-(4-((4-([1,2,4]triazolo[1,5-a]pyridin-7-yloxy)-3-methylphenyl)amino)pyrrolo[2,1-f][1,2,4]triazin-5-yl)-3,9-diazabicyclo[4.2.1]nonan-3-yl)prop-2-en-1-one]
IC50 (BaF3_HER2YVMA cells; 72 h): 500 to 1500 nM | IC50 (BaF3_HER2WT cells; 72 h): < 200 nM | IC50 (BaF3_EGFRWT cells; 72 h): 1500 to 5000 nM

C=CC(=O)N1CCN(c2ccn3ncnc(Nc4ccc(Oc5ccc6c(c5)ncn6C)c(C)c4)c23)CC1 [Example 121, 1-(4-(4-((3-methyl-4-((1-methyl-1H-benzo[d]imidazol-5-yl)oxy)phenyl)amino)pyrrolo[2,1-f][1,2,4]triazin-5-yl)piperazin-1-yl)prop-2-en-1-one]
IC50 (BaF3_HER2YVMA cells; 72 h): < 200 nM | IC50 (BaF3_HER2WT cells; 72 h): < 200 nM | IC50 (BaF3_EGFRWT cells; 72 h): 500 to 1500 nM

CO[C@H]1CN(C/C=C/C(=O)N2CCC(c3ccn4ncnc(Nc5ccc(Oc6ccc7c(c6)ncn7C)c(C)c5)c34)CC2)C[C@H]1OC [Example 167, (E)-4-((3R,4S)-3,4-dimethoxypyrrolidin-1-yl)-1-(4-(4-((3-methyl-4-((1-methyl-1H-benzo[d]imidazol-5-yl)oxy)phenyl)amino)pyrrolo[2,1-f][1,2,4]triazin-5-yl)piperidin-1-yl)but-2-en-1-one]
IC50 (BaF3_HER2YVMA cells; 72 h): < 200 nM | IC50 (BaF3_HER2WT cells; 72 h): < 200 nM | IC50 (BaF3_EGFRWT cells; 72 h): 1500 to 5000 nM

C=CC(=O)N1C2CCC1CC(c1ccn3ncnc(Nc4ccc(Oc5ccn6ncnc6c5)c(C)c4)c13)C2 (single isomer, unassigned) [Examples 124 and 125, first eluting isomer, 1-(3-(4-((4-([1,2,4]triazolo[1,5-a]pyridin-7-yloxy)-3-methylphenyl)amino)pyrrolo[2,1-f][1,2,4]triazin-5-yl)-8-azabicyclo[3.2.1]octan-8-yl)prop-2-en-1-one]
IC50 (BaF3_HER2YVMA cells; 72 h): < 200 nM | IC50 (BaF3_HER2WT cells; 72 h): < 200 nM | IC50 (BaF3_EGFRWT cells; 72 h): < 200 nM

Cc1cc(Nc2ncnn3ccc(C4CN(C(=O)/C=C/CN5CCC(F)CC5)C4)c23)ccc1Oc1ccn2ncnc2c1 [Example 62, (E)-1-(3-(4-((4-([1,2,4]triazolo[1,5-a]pyridin-7-yloxy)-3-methylphenyl)amino)pyrrolo[2,1-f][1,2,4]triazin-5-yl)azetidin-1-yl)-4-(4-fluoropiperidin-1-yl)but-2-en-1-one]
IC50 (BaF3_HER2YVMA cells; 72 h): < 200 nM | IC50 (BaF3_HER2WT cells; 72 h): < 200 nM | IC50 (BaF3_EGFRWT cells; 72 h): 1500 to 5000 nM

Cc1cc(Nc2ncnn3ccc(N4CC(NC(=O)/C=C/CN5CCOCC5)C4)c23)ccc1Oc1ccn2ncnc2c1 [Example 81, (E)-N-(1-(4-((4-([1,2,4]triazolo[1,5-a]pyridin-7-yloxy)-3-methylphenyl)amino)pyrrolo[2,1-f][1,2,4]triazin-5-yl)azetidin-3-yl)-4-morpholinobut-2-enamide]
IC50 (BaF3_HER2YVMA cells; 72 h): 1500 to 5000 nM | IC50 (BaF3_HER2WT cells; 72 h): 200 to 500 nM | IC50 (BaF3_EGFRWT cells; 72 h): 1500 to 5000 nM

C=CC(=O)N1CCN(c2ccn3ncnc(Nc4ccc(Oc5ccn6ncnc6c5)c(C)c4)c23)CC12CC2 [Example 75, 1-(7-(4-((4-([1,2,4]triazolo[1,5-a]pyridin-7-yloxy)-3-methylphenyl)amino)pyrrolo[2,1-f][1,2,4]triazin-5-yl)-4,7-diazaspiro[2.5]octan-4-yl)prop-2-en-1-one]
IC50 (BaF3_HER2YVMA cells; 72 h): < 200 nM | IC50 (BaF3_HER2WT cells; 72 h): < 200 nM | IC50 (BaF3_EGFRWT cells; 72 h): 500 to 1500 nM

C=CC(=O)N1CC=C(c2ccn3ncnc(Nc4ccc(Oc5ccn6ncnc6c5)c(C)c4)c23)C1 [Example 28, 1-(3-(4-((4-([1,2,4]triazolo[1,5-a]pyridin-7-yloxy)-3-methylphenyl)amino)pyrrolo[2,1-f][1,2,4]triazin-5-yl)-2,5-dihydro-1H-pyrrol-1-yl)prop-2-en-1-one acetate]
IC50 (BaF3_HER2YVMA cells; 72 h): 500 to 1500 nM | IC50 (BaF3_HER2WT cells; 72 h): < 200 nM | IC50 (BaF3_EGFRWT cells; 72 h): 1500 to 5000 nM

Cc1cc(Nc2ncnn3ccc(C4CCN(C(=O)/C=C/CN(C)C)CC4)c23)ccc1Oc1ccc2c(c1)ncn2C [Example 133, (E)-4-(dimethylamino)-1-(4-(4-((3-methyl-4-((1-methyl-1H-benzo[d]-224-midazole-5-yl)oxy)phenyl)amino)pyrrolo[2,1-f][1,2,4]triazin-5-yl)piperidin-1-yl)but-2-en-1-one]
IC50 (BaF3_HER2YVMA cells; 72 h): < 200 nM | IC50 (BaF3_HER2WT cells; 72 h): < 200 nM | IC50 (BaF3_EGFRWT cells; 72 h): 1500 to 5000 nM
